Patent publication US8853257B2, “Succinimide derivatives as ocular hypotensive agents” (priority 2005, dated 2014)
Values joined by “and” are separate entries in the source; they are usually repeats but may differ in a detail not shown here. Equal entries are not always repeated.

Experiments:
[1] = system: Dark Agauti (DA) pigmented rats; experiment: Effect of topical ethosuximide on intraocular pressure in rats (Tono-Pen); assay type: in vivo; details: for IOP, treated eye (T), individual rats: one value per rat; for IOP, treated eye (T), Average X: rats
Method: Preliminary ocular pharmacodynamic studies were conducted to study the effect of ethosuximide on the intraocular pressure in rats by measuring IOP before and after administration of ethosuximide. IOP measurements were taken by a tonopen instrument. Ethosuximide was applied as a viscous solution obtained from Petnidan® capsules (Desitin, Hamburg, Germany). A recent study at Alcon Research laboratory (Pang I H, Wang W H, Clark A F: Acute effects of glaucoma medications on rat intraocular pressure, Exp Eye Res 2005, February; 80(2)207-14) has shown rats to be a proper animal model for glaucoma study. Another study at the Casey Eye Institute (Moore C G, Milne S T, Morrison J C: Noninvasive measurements of rat intraocular pressure with the Tono-Pen. Invest. Opthalmol. Vis. Sci. 1993 February; 34(2)363-9) has shown that a tonopen can be used reliably to measure IOP in normal rat eye.
Six Dark Agauti (DA) pigmented rats, (250-300 g in weight) were slightly sedated with 1.5-2 mg (0.15-0.2 ml) of intraperitoneal xylazine. One eye of each rat was randomly selected to receive topical administration of 50 µl of 250 mg/0.2 ml ethosuximide solution (content of Petnidan capsules). The second (control) eye received 50 µl of viscoelastic solution without the active ingredient (Viscotears™ manufactured by Novartis, Switzerland). At t=0 (immediately before) and at 30, 60 and 120 minutes after administration, topical anesthetic benoxinate was applied to both eyes and the intraocular pressures (IOP) were measured by a Tono-Pen XL tonometer (Medtronics). IOP values were recorded as the mean value of 6-10 successive measurements to minimize variability. The code, namely which eye of a pair was treated, was unknown to the technician who performed the IOP measurements. One rat expired after 1 hour due to excessive sedation. Five rats completed the experiment. In 2 out of 6 eyes that received the drug (vs. 1 of 6 eyes that were administered viscoelastic vehicle) a mild to moderate limbal vascular congestion was noticed, which tended to subside at 60 minutes.
At the end of the experiment, the code was broken and the IOP values in control and treated eyes were compared by statistical analysis.

[2] = system: normo-tensive New Zealand White (NZW) rabbits; experiment: Effect of topical ethosuximide on intraocular pressure in rabbits (Tono-Pen); assay type: in vivo; details: for IOP, treated eye (T), individual rabbits: one value per rabbit
Method: Another study was conducted, in order to study the effect of ethosuximide on the intraocular pressure in rabbits by measuring IOP before and after administration of ethosuximide. IOP measurements were taken by a tonopen instrument. Ethosuximide was applied as a viscous solution obtained from Petnidan® capsules (Desitin, Hamburg, Germany).
Five fully awake, normo-tensive New Zealand White (NZW) rabbits, (each approximately 3.0 kg in weight) were used in this study. One eye of each rabbit was randomly selected to receive topical administration of 50 μl of 250 mg/0.2 ml ethosuximide solution (content of Petnidan capsules). The second (control) eye received 50 μl of viscoelastic solution without the active ingredient (Viscotears™ manufactured by Novartis, Switzerland). At t=0 (baseline, immediately before) and at 0.5, 1, 2, 4 and 6 hours after administration, topical anesthetic benoxinate was applied to both eyes and the intraocular pressures were measured by a Tono-Pen XL tonometer (Medtronics). IOP values were recorded as the mean value of 6-10 successive measurements to minimize variability. The code, namely which eye of a pair was treated, was (unknown to the technician who performed the IOP measurements. In 3 out of 5 eyes that received the drug (vs. 1 of 5 eyes that were administered viscoelastic vehicle) a mild to moderate limbal vascular congestion was noticed, which tended to subside at 60 minutes. In one treated eye the congestion persisted for two hours. At the end of the experiment, the code was broken and the IOP values in control and treated eyes were compared. The results are summarized in Table 2.

[3] = 60 min after topical administration
[4] = 120 min after topical administration

CCC1(C)CC(=O)NC1=O (centres unmarked) [ethosuximide]
IOP, treated eye (T), individual rats ([1]; 30 min after topical 50 ul of 250 mg/0.2 ml ethosuximide solution): 17 mmHg and 16 mmHg and 15 mmHg and 15.3 mmHg and 20.5 mmHg and 22 mmHg
IOP, treated eye (T), Average X ([1]; 30 min after topical administration): 17.6 mmHg
IOP, treated eye (T), individual rats [1, 3]: 21.3 mmHg (2×) and 30 mmHg and 18 mmHg and 14.6 mmHg
IOP, treated eye (T), Average X [1, 3]: 21.0 mmHg
IOP, treated eye (T), individual rats [1, 4]: 22 mmHg and 17 mmHg and 19 mmHg and 20.5 mmHg and 20.2 mmHg
IOP, treated eye (T), Average X [1, 4]: 19.7 mmHg
eyes with mild to moderate limbal vascular congestion ([1]; rat eyes that received the drug (vs. 1 of 6 vehicle eyes), tended to subside at 60 minutes): 2 out of 6
IOP, treated eye (T), individual rabbits ([2]; 0.5 hour after topical 50 μl of 250 mg/0.2 ml ethosuximide solution): 17.3 mmHg and 18.3 mmHg and 16.3 mmHg and 19.7 mmHg and 20.0 mmHg
IOP, treated eye (T), Mean ([2]; 0.5 hour, rabbits): 18.3 mmHg
IOP, treated eye (T), individual rabbits ([2]; 1 hour after topical administration): 12.8 mmHg and 16.0 mmHg and 15.0 mmHg and 19.7 mmHg and 18.5 mmHg
Δ IOP, difference in mean IOP (T − C) ([2]; 1 hour, p .557): −0.6 mmHg
IOP, treated eye (T), Mean ([2]; 1 hour, rabbits): 16.0 mmHg
IOP, treated eye (T), individual rabbits ([2]; 2 hours after topical administration): 17.3 mmHg and 20.0 mmHg and 19.6 mmHg and 16.3 mmHg and 19.8 mmHg
Δ IOP vs t = o, mean IOP of treated eyes ([2]; 2 hours versus baseline, p .420): −1.4 mmHg
IOP, treated eye (T), Mean ([2]; 2 hours, rabbits): 18.6 mmHg
IOP, treated eye (T), individual rabbits ([2]; 4 hours after topical administration): 15.5 mmHg and 15.8 mmHg and 13.0 mmHg and 12.5 mmHg and 17.5 mmHg
IOP, treated eye (T), Mean ([2]; 4 hours, rabbits): 14.9 mmHg
IOP, treated eye (T), individual rabbits ([2]; 6 hours after topical administration): 19.5 mmHg and 20.0 mmHg and 13.5 mmHg and 19.4 mmHg and 16.0 mmHg
Δ IOP vs t = o, mean IOP of treated eyes ([2]; 6 hours versus baseline, p .404): −2.3 mmHg
Δ IOP, difference in mean IOP (T − C) ([2]; 6 hours, p .920): +0.1 mmHg
IOP, treated eye (T), Mean ([2]; 6 hours, rabbits): 17.7 mmHg
eyes with mild to moderate limbal vascular congestion ([2]; rabbit eyes that received the drug (vs. 1 of 5 vehicle eyes), tended to subside at 60 minutes): 3 out of 5
treated eyes in which the congestion persisted for two hours ([2]; rabbits): one
